Measured values published in patent publication US20130337070A1, “Coated Nanoparticle Therapy for Skin Cancer” (University of Central Florida Research Foundation Inc., priority 2012, published 2013).

Tests used:
[1] = test system: human endothelial cells (HMEC-1)
Description: (§1) The activity of mitochondrial dehydrogenases, as indicator of cellular viability, results in the formation of a purple formazan dye. […] The medium was removed and the cells were lysed in dimethyl sulfoxide. The formazan formation was measured at 570 nm.

[2] = test system: human dermal fibroblasts (HDF)
Description: as §1

Caveolin-1 = Caveolin-1 expression, western blot; type: cell-based, human; details: for caveolin-1 expression after pretreatment, compared to CNP treated cells: melanoma cells pretreated with N-acetyl-L-cysteine (4 h) or apocynin (1 h), then CNP
Description: FIG. 6 Expression of Caveolin-1 in melanoma cells. […] H2O2 was used as a positive control and a-tubulin as a loading control. Three independent experiments were performed.

A375 melanoma cells [3] = test: Extracellular hydrogen peroxide (Amplex Red); type: cell-based, human; details: A375, 1 h pre-incubation with 1 mM apocynin prior to CNP; 24 and 48 h
Description: The Amplex Red reagent (10-acetyl-3,7-dihydroxyphenoaxine), in combination with horseradish peroxidase (HRP), can be used to detect hydrogen peroxide released from cells. H2O2-mediated oxidation of the reagent results in the fluorescent product resorufin. Subconfluent A375 tumor cells were treated with 150 μM CNP or pre-incubated with 1 mM apocynin in serumfree DMEM in 96-well plates for different time points. […] Furthermore, the generation of intracellular ROS was determined using 2?,7?-Dichlorodihydrofluorescein diacetate (H2DCF-DA), a dye that diffuses across the lipid membranes into cells and is subsequently oxidized by intracellular ROS forming the highly fluorescent DCF.

A375 melanoma cells [4] = test: Intracellular ROS (DCF fluorescence), melanoma cells; details: A375, 5 μM doxorubicin, DCF over 90 min
[5] = test system: human dermal fibroblasts (HDF); test: Intracellular ROS (DCF fluorescence), fibroblasts; details: 150 μM CNP or 5 μM doxorubicin, DCF over 90 min
A375 melanoma cells [6] = test: Carbonylated proteins in cells (OxyBlot); details: A375, 150 μM CNP 4-48 h or 250 μM H2O2
A375 melanoma cells [7] = test: Oxidized thiol groups (sulfenic acid), western blot; details: A375, 150 μM CNP 24 h or 1 mM H2O2 2 h, vs dimedone treated controls
cytochrome c = test: Cytosolic cytochrome c, western blot; details: A375; CNP 12 and 24 h; H2O2 1 h; vs mock-treated controls
caspase-3 = test: Caspase-3 activity assay; type: cell-based, human; details: melanoma cells, 100 nM staurosporine 24 h, positive control
Description: Cell pellets were suspended in cell lysis buffer and incubated on ice for 45 min. The lysate was vortexed every 15 min. After centrifugation at 11000×g for 15 min, supernatants were collected and immediately measured for protein concentration and caspase activity. Briefly, cell lysates (20 μg protein) were placed in 96-well plates and then the specific caspase substrate (Ac-DEVD-AMC for caspase-3) was added. Plates were incubated at 37° C. for 1 h and caspase activity was determined by fluorescence intensity with the excitation and emission wavelengths set at 380 nm and 440 nm, respectively.

dextran-coated cerium oxide nanoparticles [CNP]
cell viability [1]: not altered | cell viability [2]: not altered

COc1cc(C(C)=O)ccc1O [apocynin]
caveolin-1 expression after pretreatment, compared to CNP treated cells (Caveolin-1): increased caveolin-1 expression | CNP mediated hydrogen peroxide generation after apocynin pre-incubation (A375 melanoma cells [3]): downregulated

CC(=O)N[C@@H](CS)C(=O)O [N-acetyl-L-cysteine]
caveolin-1 expression after pretreatment, compared to CNP treated cells (Caveolin-1): increased caveolin-1 expression

COc1cccc2c1C(=O)c1c(O)c3c(c(O)c1C2=O)C[C@@](O)(C(=O)CO)C[C@@H]3O[C@H]1C[C@H](N)[C@H](O)[C@H](C)O1 [doxorubicin]
intracellular ROS level (A375 melanoma cells [4]): significantly increased | intracellular ROS level [5]: significantly increased

OO [H2O2, hydrogen peroxide]
amount of carbonylated proteins vs mock-treated cells (A375 melanoma cells [6]): significantly increased | Cav-1 expression vs mock-treated control (Caveolin-1; melanoma cells, CNP for 1 h, H2O2 for 1 h and 4 h): completely abrogated | oxidized thiols (sulfenic acid) (A375 melanoma cells [7]): similarlevel | cytosolic cytochrome c (cytochrome c): significant increase

CN[C@@H]1C[C@H]2O[C@@](C)([C@@H]1OC)n1c3ccccc3c3c4c(c5c6ccccc6n2c5c31)C(=O)NC4 [staurosporine]
caspase-3 activity (caspase-3): increased
